Laboratory results as given in ChEMBL document CHEMBL1135808, “A new type of mixed anhydride and its applications to the synthesis of 7-substituted 8-chloro-5,5-dioxoimidazo[1,2-b][1,4,2]benzodithiazines with in vitro antitumor activity” (2002).

Tests used:
BT-549 [1] = assay: In vitro growth inhibition against breast cancer BT 549 cell line was reported.; type: functional; details: Homo sapiens
BT-549 [2] = assay: In vitro total growth inhibition against breast cancer BT 549 cell line was reported.; type: functional; details: Homo sapiens, read-out: Log TGI (converted)
Hs-578T = assay: In vitro growth inhibition against breast cancer HS 578T cell line was reported.; type: functional; details: Homo sapiens
MCF7 [3] = assay: In vitro growth inhibition against breast cancer MCF 7 cell line was reported.; type: functional; details: Homo sapiens
MCF7 [4] = assay: In vitro total growth inhibition against breast cancer MCF 7 cell lines was reported.; type: functional; details: Homo sapiens, read-out: Log TGI (converted)
MDA-MB-231 = assay: In vitro total growth inhibition against breast cancer MDA-MB-231/ATCC cell lines was reported.; type: functional; details: Homo sapiens, read-out: Log TGI (converted)
MDA-N = assay: In vitro total growth inhibition against breast cancer MDA-N cell lines was reported.; type: functional; details: Homo sapiens, read-out: Log TGI (converted)
NCI/ADR-RES = assay: In vitro total growth inhibition against breast cancer NCI/ADR-RES cell lines was reported.; type: functional; details: Homo sapiens, read-out: Log TGI (converted)
SF-295 = assay: Log of molar concentration leading to 50% cell death against CNS cancer SF-295 cell line was reported; type: functional; details: Homo sapiens, read-out: Log LC50 (the source's name) (converted)
SF-539 = assay: In vitro growth inhibition against CNS cancer SF-539 cell line was reported.; type: functional; details: Homo sapiens
SNB-19 = assay: In vitro total growth inhibition against CNS cancer SNB-19 cell lines was reported.; type: functional; details: Homo sapiens, read-out: Log TGI (converted)
SNB-75 [5] = assay: In vitro growth inhibition against CNS cancer SNB-75 cell line was reported.; type: functional; details: Homo sapiens
SNB-75 [6] = assay: In vitro total growth inhibition against CNS cancer SNB-75 cell lines was reported.; type: functional; details: Homo sapiens, read-out: Log TGI (converted)
SF-268 = assay: In vitro growth inhibition against CNS cancer SF-268 cell line was reported.; type: functional; details: Homo sapiens
HCT-15 [7] = assay: In vitro total growth inhibition against colon cancer HCT-15 cell lines was reported.; type: functional; details: Homo sapiens, read-out: Log TGI (converted)
KM12 = assay: In vitro total growth inhibition against colon cancer KM12 cell lines was reported.; type: functional; details: Homo sapiens, read-out: Log TGI (converted)
SW-620 = assay: In vitro total growth inhibition against colon cancer SW-620 cell lines was reported.; type: functional; details: Homo sapiens, read-out: Log TGI (converted)
CCRF-CEM = assay: In vitro growth inhibition against leukemia CCRF-CEM cell line was reported.; type: functional; details: Homo sapiens
HL-60 = assay: In vitro growth inhibition against leukemia HL-60(TB) cell line was reported.; type: functional; details: Homo sapiens
MOLT-4 = assay: In vitro total growth inhibition against leukemia MOLT-4 cell lines was reported.; type: functional; details: Homo sapiens, read-out: Log TGI (converted)
SK-MEL-2 [8] = assay: In vitro growth inhibition against melanoma SK-MEL-2 cell line was reported.; type: functional; details: Homo sapiens
SK-MEL-5 = assay: In vitro growth inhibition against melanoma SK-MEL-5 cell line was reported.; type: functional; details: Homo sapiens
UACC-257 [9] = assay: In vitro total growth inhibition against melanoma UACC-257 cell line was reported.; type: functional; details: Homo sapiens
A549 = assay: In vitro total growth inhibition against non-small-cell lung cancer A 549/ATCC cell lines was reported.; type: functional; details: Homo sapiens, read-out: Log TGI (converted)
NCI-H46 [10] = assay: Log of molar concentration leading to 50% cell death against non-small-cell lung cancer […] cell line was reported; type: functional; details: Homo sapiens, read-out: Log LC50 (the source's name) (converted)
NCI-H46 [11] = assay: In vitro total growth inhibition against non-small-cell lung cancer […] cell lines was reported.; type: functional; details: Homo sapiens, read-out: Log TGI (converted)
NCI-H522 [12] = assay: Log of molar concentration leading to 50% cell death against non-small-cell lung cancer NCI-522 cell line was reported; type: functional; details: Homo sapiens, read-out: Log LC50 (the source's name) (converted)
NCI-H522 [13] = assay: In vitro total growth inhibition against non-small-cell lung cancer NCI-522 cell lines was reported.; type: functional; details: Homo sapiens, read-out: Log TGI (converted)
NCI-H226 = assay: In vitro total growth inhibition against non-small-cell lung cancer NCI-H226 cell lines was reported.; type: functional; details: Homo sapiens, read-out: Log TGI (converted)
NCI-H322M [14] = assay: In vitro total growth inhibition against non-small-cell lung cancer NCI-H322M cell lines was reported.; type: functional; details: Homo sapiens, read-out: Log TGI (converted)
IGROV-1 [15] = assay: In vitro total growth inhibition against ovarian cancer IGROV1 cell lines was reported.; type: functional; details: Homo sapiens, read-out: Log TGI (converted)
OVCAR-3 = assay: In vitro total growth inhibition against ovarian cancer OVCAR-3 cell lines was reported.; type: functional; details: Homo sapiens, read-out: Log TGI (converted)
OVCAR-4 = assay: In vitro total growth inhibition against ovarian cancer OVCAR-4 cell lines was reported.; type: functional; details: Homo sapiens, read-out: Log TGI (converted)
OVCAR-5 = assay: In vitro total growth inhibition against ovarian cancer OVCAR-5 cell lines was reported.; type: functional; details: Homo sapiens, read-out: Log TGI (converted)
OVCAR-8 [16] = assay: In vitro growth inhibition against ovarian cancer OVCAR-8 cell line was reported.; type: functional; details: Homo sapiens
OVCAR-8 [17] = assay: In vitro total growth inhibition against ovarian cancer OVCAR-8 cell lines was reported.; type: functional; details: Homo sapiens, read-out: Log TGI (converted)
DU-145 = assay: In vitro growth inhibition against prostate cancer […] cell line was reported.; type: functional; details: Homo sapiens
CAKI-1 = assay: In vitro total growth inhibition against renal cancer CAKI-1cell lines was reported.; type: functional; details: Homo sapiens, read-out: Log TGI (converted)
RXF 393 [18] = assay: In vitro total growth inhibition against renal cancer RXF 393 cell lines was reported.; type: functional; details: Homo sapiens, read-out: Log TGI (converted)
786-0 = assay: In vitro growth inhibition against renal cancer […] cell line was reported.; type: functional; details: Homo sapiens
A498 [19] = assay: In vitro growth inhibition against renal cancer A498 cell line was reported.; type: functional; details: Homo sapiens
TK-10 [20] = assay: In vitro growth inhibition against renal cancer TK-10 cell line was reported.; type: functional; details: Homo sapiens
UO-31 [21] = assay: In vitro growth inhibition against renal cancer UO-31 cell line was reported.; type: functional; details: Homo sapiens
LOX IMVI = assay: In vitro total growth inhibition against melanoma LOX IMVI cell lines was reported.; type: functional; details: Homo sapiens, read-out: Log TGI (converted)
SK-MEL-2 [22] = assay: Log of molar concentration leading to 50% cell death against melanoma SK-MEL-2 cell line was reported; type: functional; details: Homo sapiens, read-out: Log LC50 (the source's name) (converted)
SK-MEL-2 [23] = assay: In vitro total growth inhibition against melanoma SK-MEL-2 cell lines was reported.; type: functional; details: Homo sapiens, read-out: Log TGI (converted)
PC-3 [24] = assay: Log of molar concentration leading to 50% cell death against prostate cancer PC-3 cell line was reported; type: functional; details: Homo sapiens, read-out: Log LC50 (the source's name) (converted)
UACC-257 [25] = assay: In vitro total growth inhibition against melanoma UACC-257 cell lines was reported.; type: functional; details: Homo sapiens, read-out: Log TGI (converted)
IGROV-1 [26] = assay: Log of molar concentration leading to 50% cell death against ovarian cancer IGROV1 cell line was reported; type: functional; details: Homo sapiens, read-out: Log LC50 (the source's name) (converted)
NCI-H322M [27] = assay: In vitro growth inhibition against non-small-cell lung cancer […] cell line was reported.; type: functional; details: Homo sapiens
RXF 393 [28] = assay: Log of molar concentration leading to 50% cell death against renal cancer RXF 393 cell line was reported; type: functional; details: Homo sapiens, read-out: Log LC50 (the source's name) (converted)
TK-10 [29] = assay: Log of molar concentration leading to 50% cell death against renal cancer TK-10 cell line was reported; type: functional; details: Homo sapiens, read-out: Log LC50 (the source's name) (converted)
U-251 = assay: Log of molar concentration leading to 50% cell death against CNS cancer U251 cell line was reported; type: functional; details: Homo sapiens, read-out: Log LC50 (the source's name) (converted)
HCT-15 [30] = assay: In vitro growth inhibition against colon cancer […] cell line was reported.; type: functional; details: Homo sapiens
RPMI-8226 = assay: In vitro growth inhibition against leukemia […] cell line was reported.; type: functional; details: Homo sapiens
HCC 2998 = assay: Log of molar concentration leading to 50% cell death against colon cancer HCC2998 cell line was reported; type: functional; details: Homo sapiens, read-out: Log LC50 (the source's name) (converted)
UO-31 [31] = assay: In vitro total growth inhibition against renal cancer UO-31 cell lines was reported.; type: functional; details: Homo sapiens, read-out: Log TGI (converted)
PC-3 [32] = assay: In vitro total growth inhibition against prostate cancer PC-3 cell lines was reported.; type: functional; details: Homo sapiens, read-out: Log TGI (converted)
SR = assay: In vitro total growth inhibition against leukemia SR cell lines was reported.; type: functional; details: Homo sapiens, read-out: Log TGI (converted)
A498 [33] = assay: In vitro total growth inhibition against renal cancer A-498 cell lines was reported.; type: functional; details: Homo sapiens, read-out: Log TGI (converted)
HOP-92 = assay: In vitro total growth inhibition against non-small-cell lung cancer HOP-92 cell lines was reported.; details: Homo sapiens, read-out: Log TGI (converted)

O=C(Nc1nccs1)c1cc2c(cc1Cl)Sc1nccn1S2(=O)=O
GI50 (BT-549 [1]): 18.2 µM
TGI (BT-549 [2]): 35.5 µM
GI50 (Hs-578T): 28.2 µM
GI50 (MCF7 [3]): 6.76 µM
TGI (MCF7 [4]): 20 µM
TGI (MDA-MB-231): 36.3 µM
TGI (MDA-N): 33.1 µM
TGI (NCI/ADR-RES): 44.7 µM
CC50 (SF-295): 64.6 µM
GI50 (SF-539): 19.5 µM
TGI (SNB-19): 37.2 µM
GI50 (SNB-75 [5]): 18.6 µM
TGI (SNB-75 [6]): 35.5 µM
GI50 (SF-268): 19.1 µM
TGI (HCT-15 [7]): 33.9 µM
TGI (KM12): 26.3 µM
TGI (SW-620): 41.7 µM
GI50 (CCRF-CEM): 5.01 µM
GI50 (HL-60): 13.5 µM
TGI (MOLT-4): 41.7 µM
GI50 (SK-MEL-2 [8]): 17.4 µM
GI50 (SK-MEL-5): 16.6 µM
GI50 (UACC-257 [9]): 13.8 µM
TGI (A549): 63.1 µM
CC50 (NCI-H46 [10]): 55 µM
TGI (NCI-H46 [11]): 29.5 µM
CC50 (NCI-H522 [12]): 6.61 µM
TGI (NCI-H522 [13]): 2.82 µM
TGI (NCI-H226): 35.5 µM
TGI (NCI-H322M [14]): 33.9 µM
TGI (IGROV-1 [15]): 29.5 µM
TGI (OVCAR-3): 28.2 µM
TGI (OVCAR-4): 38.9 µM
TGI (OVCAR-5): 45.7 µM
GI50 (OVCAR-8 [16]): 17.4 µM
TGI (OVCAR-8 [17]): 37.2 µM
GI50 (DU-145): 16.2 µM
TGI (CAKI-1): 37.2 µM
TGI (RXF 393 [18]): 39.8 µM
GI50 (786-0): 15.8 µM
GI50 (A498 [19]): 19.1 µM
GI50 (TK-10 [20]): 19.1 µM
GI50 (UO-31 [21]): 4.37 µM
TGI (LOX IMVI): 25.7 µM
CC50 (SK-MEL-2 [22]): 63.1 µM
TGI (SK-MEL-2 [23]): 33.1 µM
CC50 (PC-3 [24]): 66.1 µM
TGI (UACC-257 [25]): 26.9 µM
CC50 (IGROV-1 [26]): 75.9 µM
GI50 (NCI-H322M [27]): 17.4 µM
CC50 (RXF 393 [28]): 83.2 µM
CC50 (TK-10 [29]): 63.1 µM
CC50 (U-251): 56.2 µM
GI50 (HCT-15 [30]): 12.3 µM
GI50 (RPMI-8226): 9.33 µM
CC50 (HCC 2998): 53.7 µM
TGI (UO-31 [31]): 14.8 µM
TGI (PC-3 [32]): 33.1 µM
TGI (SR): 12 µM
TGI (A498 [33]): 34.7 µM
TGI (HOP-92): 39.8 µM
